Reference: paper PMC10107326 (Angewandte Chemie (International Ed. in English), 2022)
No end group written: not given here.

How the values were obtained:
[1] = tested on: HepG2; assay: Cytotoxicity against HepG2; type: cell-based; conditions: HepG2 human cell line
[2] = tested on: large panel of pathogens; conditions: pure DD; cited from earlier work

Row | Substance | IC50 [1] [µg/mL] | decrease in activity when comparing DA and DD, fold [2] [fold]
1 | D32: engineered darobactin, core peptide WNWCKRW, cysteine disulfide-bonded to L-cysteine and lactic acid (not fully specified; also: Cys4 disulfide-bonded to L-cysteine, lactic acid attached, position not given here) | > 37 | –
2 | WNWTRSF (also: bicyclic or more (positions not given here)) [DD] | – | 16
